This note sets out measurements from patent US4134989A (Aziende Chimiche Riunite Angelini Francesco A.C.R.A.F. …, priority 1976, dated 1979).

Like-named read-outs stand apart in the source and are kept apart here.

Data set [1] deals with cough produced by acrolein inhalation. In words: Anti-tussive activity: cough produced by acrolein inhalation in guinea pigs (Silvestrini and Pozzatti). It counts as in vivo. To be noted: Cavia porcellus, acrolein-induced cough. As to the method: The test for the anti-tussive activity was done according to Silvestrini and Pozzatti (1960) […] B. and POZZATTI C., Anti-tussive activity and other pharmacological properties of six oxadiazoles. Arch. int. pharmacodyn. 129, 249-263, 1960. Since the details are given in this publication, it should only be recalled that the test is performed on guineapigs by using acrolein inhalation to produce cough. Male guinea pigs were used weighing 300-500 grams. The pharmacokinetic study was performed in Long-Evans rats of both sexes weighing 150 grams. […] The animals were sacrificed at […]

Data set [2] can be described thus: Pharmacokinetic study: serum samples after oral administration to rats. It counts as in vivo, Long-Evans rats. As to the method: The test for the anti-tussive activity was done according to S[…]nd Pozzatti (1960) S[…]. and POZZATTI C., Anti-tussive activity and other pharmacological properties of six oxadiazoles. Arch. int. pharmacodyn. 129, 249-263, 1960. Since the details are given in this publication, it should only be recalled that the test is performed on guineapigs by using acrolein inhalation to produce cough. Male guinea pigs were used weighing 300-500 grams. The pharmacokinetic study was performed in Long-Evans rats of both sexes weighing 150 grams. […] The animals were sacrificed at
time intervals and serum samples were taken. […] MIZUTANI M. and NAITO S., Studies on absorption and excretion of drugs. XXIX. Biopharmaceutical studies on guaiacol glycerol ether and related compounds. I. Blood level of guaiacol glycerol ether in rabbit and its binding with serum proteins. Chem. Pharm. Bull. 15, 1422-1426, 1967. Moreoever, ibuprofen and guaiacol were dosed according to the methods of Kaiser and […] (1974) and Mizutani and Naito (1967), respectively. KAISER, D. G. and […]. J., GLC determination of ibuprofen [(+)-2-(p-isobutylphenyl)propionic acid] in plasma. J. Pharm. Sci. 63, 219-221, 1974. MIZUTANI M. and NAITO S., Studies on absorption and excretion of drugs. XXIX. Biopharmaceutical studies on guaiacol glycerol ether and related compounds. […]

For data set [3], the system named is writhing reflexes induced by phenylquinone. In words: Analgesic activity: writhing reflexes induced by phenylquinone (Hendershot and Forsaith). It counts as in vivo, Swiss mice. The source says: (§1) 3. Anti-inflammatory activity: In connection with the anti-inflammatory activity, both the anti-edema and analgesic activities were studied (namely, the ability to inhibit the painful response from inflamed tissues). The anti-edema activity was studied according to Winter et al. (1962). WINTER C. A., RISLEY E. A. and NUSS G. W., Carrageenin-induced edema in hind
The analgesic activity was studied according to Hendershot and Forsaith (1959). HENDERSHOT L. C. and FORSAITH J., Antagonism of the frequency of phenylquinone induced writhing in the mouse by weak analgesics and non-analgesics. J. Pharmacol. Exp. Ther. 125, 237-240, 1959. Swiss mice of both sexes weighing 18-22 grams were used.

Data set [4] deals with intestine. The following applies: rat, in vivo, po.
Description: (§2) Experiments were done in Long-Evans rats of both sexes weighing 150-190 grams. The drugs were suspended in methyl-cellulose (0.5%) and given by gavage. The animals were fasted during the 8 hours before treatment and were sacrificed 18 hours later. They were autopsied and gastrointestinal lesions were scored according to the score system described by Cioli et al. (1967).
Data set [5] is described as follows: in vivo. To be noted: rat, po.
Description: Long-Evans rats of both sexes were used weighing 135-188 grams. The drugs were suspended in methyl-cellulose (0.5%) and given by gavage. Deaths were recorded during the two weeks following treatment. The LD50 was calculated according to Litchfield and Wilcoxon (1949).
The test system of data set [6] is carrageenin-induced paw edema. In words: Anti-edema activity: carrageenin-induced paw edema in rats (Winter et al.). Details: Reduction of edema: unit not given here. The following applies: for anti-inflammatory activity, comparison of the two drugs: carrageenin edema, rats, by gavage. It counts as in vivo, Long-Evans rats.
Source text: as §1
paw of the rat as an assay for anti-inflammatory drugs. Proc. Soc. Exp. Biol. Med. 111, 544-547, 1962. […]

For data set [7], the system named is gastric mucosa. Kind of data set: Gastrointestinal tolerance: ulcerogenic activity in the gastric mucosa of rats. Format: in vivo, Long-Evans rats.
Description: as §2
Data set [8] is described as follows: Hydrolysis of GIH in the presence of serum.
Data set [9] relates to intestine. Kind of data set: Gastrointestinal tolerance: ulcerogenic activity on the intestine of rats. To be noted: intestinal lesions, by gavage.
Description: as §2
The nature of data set [10]: Hydrolysis of GIH in the presence of artificial gastric juices.

The molecule `COc1ccc2c3c1O[C@H]1[C@@H](O)C=C[C@H]4[C@@H](C2)N(C)CC[C@@]341` [codein, reference compound] registered a minimal effective dose in data set [1] (ip) of 2.5 mg/kg.
In the case of `CC(C)Cc1ccc(C(C)C(=O)O)cc1` (single isomer, unassigned; (+)) [Ibuprofen, (+)-2-(p-isobutylphenyl)propionic acid, reference compound], in [2], the “presence in serum samples of rats treated with GIH” value was “found in the serum samples”. Moreover, the entries for the “% reduction in number of writhings” value in data set [3] (5 mg/kg p.o.), in [3] (10 mg/kg p.o.) and in data set [3] (20 mg/kg p.o.) were 18%, 46% and 52%, respectively. Further, the “% of rats with ulcers” value is listed as 0% in data set [4] (16 mg/kg); 20% in data set [4] (25 mg/kg); 63% in [4] (75 mg/kg); 11% in data set [7] (16 mg/kg p.o.); 33% in data set [7] (25 mg/kg p.o.); 43% in [7] (75 mg/kg p.o.). The molecule also yielded an LD50 at 336 h in data set [5] of 640 mg/kg. Also, the Reduction of edema in data set [6] (2.5 mg/kg p.o., 2 hours) is given as 17; in data set [6] (2.5 mg/kg p.o., 4 hours), 15; in data set [6] (2.5 mg/kg p.o., 6 hours), 3; in data set [6] (5 mg/kg p.o., 2 hours) it was 41; in data set [6] (5 mg/kg p.o., 4 hours) it was 31; in [6] (5 mg/kg p.o., 6 hours), 26. Besides, the Reduction of edema in data set [6] (10 mg/kg p.o., 2 hours) turned out to be 57; in [6] (10 mg/kg p.o., 4 hours), 47; in data set [6] (10 mg/kg p.o., 6 hours) it was 36. Also, the “anti-inflammatory activity, comparison of the two drugs” value in data set [6] was “substantially the same anti-inflammatory activity”.
As to `COc1ccccc1OC(=O)C(C)c1ccc(CC(C)C)cc1` (stereo not shown) [GIH, guaiacol p-isobutyl hydratropate], the hydrolysis entry is “rapidly hydrolyzed into ibuprofen and guaiacol” in data set [8]; “no hydrolysis occurs” in data set [10]. The “% reduction in number of writhings” value in data set [3] (1.9 mg/kg p.o.) was determined as 11%; in data set [3] (3.8 mg/kg p.o.), 28%; in [3] (7.5 mg/kg p.o.), 37%; in data set [3] (15 mg/kg p.o.) it was 43%; in [3] (30 mg/kg p.o.) it was 55%. Also, the “% of rats with ulcers” value in data set [4] (25 mg/kg) came out at 0%; in [4] (38 mg/kg) it was 20%; in data set [4] (112 mg/kg), 33%; in data set [7] (25 mg/kg p.o.), 0%; in data set [7] (38 mg/kg p.o.) it was 10%; in data set [7] (112 mg/kg p.o.) it was 33%. The minimal effective dose in data set [1] (po) amounted to 25 mg/kg. Moreover, the “gastrointestinal toxicity compared with ibuprofen” value in data set [9] is reported as “less toxic than ibuprofen”. This molecule had an LD50 at 336 h in [5] of 1650 mg/kg. The Reduction of edema in data set [6] (1.9 mg/kg p.o., 2 hours) worked out at 22; in [6] (1.9 mg/kg p.o., 4 hours) it was 12; in data set [6] (1.9 mg/kg p.o., 6 hours), 1; in [6] (3.8 mg/kg p.o., 2 hours), 33; in [6] (3.8 mg/kg p.o., 4 hours), 26; in [6] (3.8 mg/kg p.o., 6 hours), 17. Also, the Reduction of edema came to 41 in data set [6] (7.5 mg/kg p.o., 2 hours); 28 in data set [6] (7.5 mg/kg p.o., 4 hours); 27 in data set [6] (7.5 mg/kg p.o., 6 hours); 50 in data set [6] (15 mg/kg p.o., 2 hours); 45 in data set [6] (15 mg/kg p.o., 4 hours); 43 in data set [6] (15 mg/kg p.o., 6 hours). Also, the “anti-inflammatory activity, comparison of the two drugs” value in data set [6] was “substantially the same anti-inflammatory activity”. In addition, the “effect on the gastric mucosa compared with ibuprofen” value in data set [7] (rats, by gavage) is given as “less toxic than ibuprofen”.
